Measured values published in US9822414B2, “In vitro method for predicting in vivo genotoxicity of chemical compounds” (priority 2011, dated 2017).
“And” between values parts separate entries of the source, which are not always exact repeats. Identical values can stand only once. Like-named read-outs stand apart in the source and are kept apart here.

Columns and labels:
SLC40A1 = experiment: Gene expression of SLC40A1 in HepG2 cells exposed to compound (microarray, log2 treatment:control ratio); type: cell-based, human; conditions: for Log2 treatment: control ratio SLC40A1: 24 h exposure, Ames negative compounds, one line per replicate of triplicate experiments
C10orf65/HOGA1 = experiment: Gene expression of C10orf65/HOGA1 in HepG2 cells exposed to compound (microarray, log2 treatment:control ratio); type: cell-based, human; conditions: for C10orf65/HOGA1: expression versus reference value, single measurement of three; for Log2 treatment: control ratio C10orf65/HOGA1: 24 h exposure, Ames negative compounds, one line per replicate of triplicate experiments
Salmonella typhimurium = conditions: cited from earlier work
rodents = conditions: cited from earlier work
[1] = system: conventional in vitro genotoxicity assays; conditions: cited from earlier work
PNMA6A = experiment: Gene expression of PNMA6A in HepG2 cells exposed to compound (microarray, log2 treatment:control ratio); type: cell-based, human; conditions: for Log2 treatment: control ratio PNMA6A: 24 h exposure, Ames negative compounds, one line per replicate of triplicate experiments
[2] = HepG2 cells, expression versus reference value, single measurement of three
[3] = standard in vivo genotoxicity designation

SMILES	SLC40A1 (SLC40A1; [2])	C10orf65/HOGA1 (C10orf65/HOGA1)	Ames (Salmonella typhimurium; Ames results based on NTP data)	In vivo GTX (rodents; in vivo)	Standard (rodents; in vivo)	In vitro GTX [1]	Log2 treatment: control ratio SLC40A1 (SLC40A1; HepG2 cells)	Log2 treatment: control ratio PNMA6A (PNMA6A; HepG2 cells)	PNMA6A (PNMA6A; [2])	Log2 treatment: control ratio C10orf65/HOGA1 (C10orf65/HOGA1)	At least ⅔ genes +? (HepG2 cell)	Average result over three measurements (HepG2 cell)	Prediction (class prediction results using the method of the invention) (HepG2 cell)	also measured
CC(=O)Nc1ccc(O)cc1 [APAP]	− (below the reference value)	− (below the reference value)	−	+	GTX	+								
ClC(Cl)Br [BDCM]	− (below the reference value)			−	NGTX	+	−0.891 and −0.178 and −0.017	0.22 and −0.289 and −0.185	− (below the reference value)	0.113 and 0.258 and 0.086	NGTX	NGTX	NGTX	Ames (Salmonella typhimurium): −
c1ccc2c(c1)cc1ccc3cccc4ccc2c1c34 [BaP]				+		+								
O=C1CCCCCN1 [CAP]	− (below the reference value)		−	−	NGTX	−	−0.607 and −0.032 and 0.265	0.312 and −0.168 and −0.165		0.203 and 0.223 and 0.138		NGTX	NGTX+	
ClC(Cl)(Cl)Cl [CCI4]	− (below the reference value)													Standard (rodents; [3]): NGTX
ClC(Cl)(Cl)Cl [CCl4]				−		+	−0.888 and −0.041 and −0.185	0.412 and −0.425 and −0.14		0.361 and 0.073 and −0.083			NGTX+	Ames (Salmonella typhimurium): −
O=c1ccc2ccccc2o1 [Cou]	− (below the reference value)	− (below the reference value)	−	−	NGTX	−	−0.215 and −0.309	0.073 and 0.081	− (below the reference value)	−0.481 and −0.483	NGTX	NGTX	NGTX	Log2 treatment: control ratio SLC40A1 (SLC40A1; HepG2 cells, listed as COU): −0.104; Log2 treatment: control ratio PNMA6A (PNMA6A; HepG2 cells, listed as COU): 0.14; Log2 treatment: control ratio C10orf65/HOGA1 (C10orf65/HOGA1; listed as COU): −0.069
COc1cc(/C=C/C(=O)CC(=O)/C=C/c2ccc(O)c(OC)c2)ccc1O [Cur]	− (below the reference value)	− (below the reference value)	−	−	NGTX	+	0.174 and 0.252 and 0.253	−0.138 and −0.135 and 0.263		0.113 and 0.028 and −0.293	NGTX	NGTX	NGTX	
CCCCC(CC)COC(=O)c1ccccc1C(=O)OCC(CC)CCCC (stereo not drawn) [DEHP]	− (below the reference value)	− (below the reference value)			NGTX	−			− (below the reference value)		NGTX	NGTX	NGTX	Log2 treatment: control ratio SLC40A1 (SLC40A1; HepG2 cells, listed as DEPH): 0.249 and −0.387 and 0.234; Log2 treatment: control ratio PNMA6A (PNMA6A; HepG2 cells, listed as DEPH): −0.264 and −0.841 and −0.034; Ames (Salmonella typhimurium): −
CC/C(=C(/CC)c1ccc(O)cc1)c1ccc(O)cc1 [DES]	+ (above the reference value)	+ (above the reference value)	−	+	GTX	+	1.504 and 0.717 and 0.723	0.286 and 0.203 and 0.135		0.146 and 0.516 and 0.206	GTX	GTX	GTX	
CN(C)N=O [DMN]				+		+						GTX	GTX+	Ames (Salmonella typhimurium): +; Standard (in vivo genotoxicity designation) (rodents; in vivo): GTX
O=C(O)Cc1ccccc1Nc1c(Cl)cccc1Cl [Diclo]	− (below the reference value)	− (below the reference value)			NGTX									
C=CCc1ccc(O)c(OC)c1 [EuG]			−	−	NGTX	+	0.161 and 0.712 and 0.293	0.39 and 0.124 and 0.031		−0.156 and 0.3 and −0.066		NGTX	NGTX+	
ClC1C(Cl)C(Cl)C(Cl)C(Cl)C1Cl (stereo not drawn) [HCH]	+ (above the reference value)	− (below the reference value)			NGTX		0.334 and 0.924 and 0.712	−0.604 and −0.2 and 0.012	− (below the reference value)	−0.367 and −0.143 and −0.165	NGTX	NGTX	NGTX	
CO[C@@]12[C@H](COC(N)=O)C3=C(C(=O)C(C)=C(N)C3=O)N1C[C@@H]1N[C@@H]12 [MMC]				+										
O=[N+]([O-])c1ccccc1 [NBZ]	− (below the reference value)			−	NGTX	−								
Oc1c(Cl)c(Cl)c(Cl)c(Cl)c1Cl [PCP]		− (below the reference value)							− (below the reference value)					Standard (rodents; [3]): NGTX
Oc1ccccc1 [Ph, Phenol]				+	GTX	+					GTX	GTX	GTX	SLC40A1 (SLC40A1): + (key: +: above the reference value; −: below the reference value); PNMA6A (PNMA6A): + (key: +: above the reference value; −: below the reference value); Ames (Salmonella typhimurium): −
CC(=O)[C@H]1CC[C@H]2[C@@H]3CCC4=CC(=O)CC[C@]4(C)[C@H]3CC[C@]12C [Prog]	− (below the reference value)			−	NGTX				− (below the reference value)					
COC(=O)[C@H]1[C@H]2C[C@@H]3c4[nH]c5cc(OC)ccc5c4CCN3C[C@H]2C[C@@H](OC(=O)c2cc(OC)c(OC)c(OC)c2)[C@@H]1OC [Res]		− (below the reference value)	−	−	NGTX	−	0.398 and −0.212 and −0.057	0.09 and −0.624 and 0.288		0.047 and 6.45E−05 and −0.043	NGTX	NGTX	NGTX	
CCNc1nc(Cl)nc(NCC)n1 [Sim]	− (below the reference value)		−	−	NGTX	−	−0.601 and −0.1 and −0.245	0.246 and 0.186 and 0.202	− (below the reference value)	0.22 and 0.14 and 0.155	NGTX	NGTX	NGTX	Classification of NGTX compounds by the method of the invention (false positives) (HepG2 cell): misclassification
Cc1noc(NS(=O)(=O)c2ccc(N)cc2)c1C [Sulfi]		− (below the reference value)		−	NGTX				− (below the reference value)					
O=C1O[C@H]([C@@H](O)CO)C(O)=C1O [VitC]		+ (above the reference value)							+ (above the reference value)		GTX	GTX	GTX	In vivo GTX (rodents; positive when at least one in vivo assay (MN, CA) positive, equivocal considered positive): +; Standard (rodents; [3]): GTX
CC1(C)S[C@@H]2[C@H](NC(=O)[C@H](N)c3ccccc3)C(=O)N2[C@H]1C(=O)O.O.O.O [ampC]	− (below the reference value)	− (below the reference value)												Standard (rodents; [3]): NGTX
Cl[C@H]1[C@H](Cl)[C@@H](Cl)[C@@H](Cl)[C@H](Cl)[C@H]1Cl [γ-HCH]				−		−								Ames (Salmonella typhimurium): −
